Source: PMC5147891 (PLoS ONE, 2016)
Several values for one entry are separate records, joined by “and”; a condition that tells them apart may be missing. Equal values may be shown once. Read-outs that look alike come from different tables or passages of the source. Marks after values point to notes of the source that are not given here.

Experiments:
hCB1 receptors [1] = target: T1, hCB1 receptors (Homo sapiens, UniProt P21554); test: Competition receptor binding with [3H]CP-55,940, CHO-hCB1 membranes; details: for Ki: [3H]CP-55,940 binding, CHO-hCB1, 0.2 nM [3H]CP-55,940, CHO-hCB1 membranes; for Selectivity (CB1/CB2): ratio hCB1-Ki/hCB2-Ki
Method: (§1) CHO-hCB1, CHO-hCB2 and CHO-hMOR cells were homogenized individually with 10 complete strokes utilizing a 7ml Dounce glass homogenizer in an ice-cold buffer containing 50 mM HEPES pH 7.4, 3 mM MgCl2, and 1 mM EDTA as described previously. The homogenized samples were then centrifuged at 40,000 × g for 10 min at 4°C. Supernatants were discarded; the pellets re-suspended in the buffer, homogenized again, and centrifuged similarly twice more. After the final centrifugation step, supernatants were discarded and pellets were re-suspended in ice-cold 50 mM HEPES, pH 7.4 to achieve an approximate protein concentration of 10 mg/ml. Membrane homogenates were divided into aliquots and stored at −80°C for future use. A small aliquot of each membrane preparation was removed prior to freezing and the protein concentration was determined using BCA Protein Assay (Thermo Fisher Scientific, Waltham, MA).
(§2) Competition receptor binding was performed as reported earlier. […] The total volume of the incubation mixture was 1 ml. All reactions were mixed and allowed to reach equilibrium binding by incubation at room temperature for 90 min. […] Binding was terminated by rapid vacuum filtration through glass fiber filters (Brandel, Gaithersburg, MD), followed by four 5 ml washes of ice-cold 50 mM Tris-HCl (pH 7.4) buffer containing 0.1% bovine serum albumin. Four ml of scintiverse scintillation fluid (Fisher Scientific, Waltham, MA) was added to the filters and the amount of radioactivity was quantified 24 hr later utilizing liquid scintillation spectrophotometry.
(§3) Data presented are expressed as mean ± standard error of the mean (S.E.M.) for a minimum of three experiments, each performed in triplicate. GraphPad Prism version 6.0f (GraphPad Software Inc.) was used for all curve-fitting and statistical analyses. Non-linear regression for one-site competition was used to determine the IC50 for competition receptor binding. IC50 values were subsequently converted to Ki values (a measure of receptor affinity) by the Cheng-Prusoff equation [31]. Non-linear regression was also used to analyze concentration-effect curves to determine the EC50 or IC50 (measures of potency) and Emax or Imax (measures of efficacy) for GTPγS binding and adenylyl cyclase experiments, respectively. All dissociation constants and measurements of potency were converted to pKi, pKB, pEC50, or pIC50 values by taking the negative log of each value so that parametric tests could be used for statistical comparisons. To compare three or more groups, statistical significance of the data was determined by a one-way ANOVA, followed by post hoc comparisons using a Tukey's or Dunnett's test. To compare two groups, the non-paired Student's t-test was used.

hCB2 receptors [2] = target: T2, hCB2 receptors (Homo sapiens, UniProt P34972); test: Competition receptor binding with [3H]CP-55,940, CHO-hCB2 membranes; details: [3H]CP-55,940 binding, CHO-hCB2, 0.2 nM [3H]CP-55,940, CHO-hCB2 membranes
T2 construct: expressed in transfected cells
Method: as §1, §2, §3

hCB2 receptors [3] = target: T2, hCB2 receptors; test: Forskolin-stimulated intracellular [3H]cAMP in intact CHO-hCB2 cells; assay type: cell-based; details: values only approximate; for EMAX, intracellular [3H]cAMP: forskolin-stimulated cAMP; for EC50: increase of forskolin-stimulated cAMP
Method: (§4) CHO-hCB1, CHO-hCB2, or CHO-hMOR cells were plated separately in normal culture media into 24-well plates at a density of 6 × 10^6 cells/plate and incubated overnight at 37°C in 5% CO2. As previously described, the following day culture media was removed from each well and replaced with 500 μl pre-incubation mixture containing either HAM’s F-12 K (CHO-hCB1) or DMEM (CHO-hCB2 and CHO-hMOR) with 0.9% NaCl, 500 μM 3-isobutyl-1-methylxathine (IBMX) and 2 μCi/well [^3H]adenine. Cells were incubated for 3–5 hr at 37°C. The pre-incubation mix was removed and indicated concentrations of drugs were added to the individual wells for 15 min at 37°C in a Krebs-Ringer-HEPES solution (10 mM HEPES, 110mM NaCl, 25mM Glucose, 55mM Sucrose, 5mM KCl, 1mM MgCl2, 1.8 mM CaCl2, pH 7.4) containing IBMX, and 10 μM forskolin. Reactions were terminated by adding 50 μl 2.2N HCl and [^3H]cAMP was isolated by employing alumina column chromatography. Radioactivity contained in 4 ml of the final column eluate was counted by a Packard-Tri-carb 2100/TR liquid scintillation counter after adding 10 ml of liquid scintillation cocktail.
To determine if modulation of adenylyl cyclase activity by SERMs was mediated through CB2 receptors coupling to Gi/o proteins, additional cAMP assays were conducted following overnight treatment with pertussis toxin as described elsewhere. Briefly, CHO-hCB2 cells were seeded into 24-well plates as described above in normal culture media containing 100 ng/ml of pertussis toxin and incubated overnight at 37°C. Pertussis toxin-treated media was removed and measurement of intracellular [^3H]cAMP levels following indicated SERM treatments was conducted as described above.
as §3

hCB1 receptors [4] = target: T1, hCB1 receptors; test: Antagonism of CP-55,940 inhibition of AC activity in intact CHO-hCB1 cells; assay type: cell-based; details: for Kb: read-out: Kb (antagonist dissociation constant); for IMAX of CP-55,940, intracellular [3H]cAMP: CP-55,940 alone or after pre-incubation with AM-281 1 μM
Method: (§5) After overnight seeding into 24-well plates and pre-incubation of cells with [^3H]adenine for 3–5 hr at 37°C as described above, media was removed and the indicated concentration of the SERM to be tested was added to all wells of the 24-well plate. […] Reactions were terminated and [^3H]cAMP isolated as described above.
as §3

hCB1 receptors [5] = target: T1, hCB1 receptors; test: [35S]GTPγS binding (G-protein activity), CHO-hCB1 membranes; assay type: biochemical
Method: as §1
(§6) The GTPγS binding assay to measure G-protein activation was performed as previously described. Briefly, in a total volume of 1 ml, 25 μg of CHO-hCB2, 50 μg of CHO-hCB1-Rx or 50 μg of CHO-hMOR membranes homogenates were added to each reaction mixture containing 0.1 nM [^35S]GTPγS, 20 mM HEPES, 10 mM MgCl2, 100 mM NaCl, 10 μM GDP, 0.1% bovine serum albumin and the indicated concentrations of ligand to be examined. After mixing, reaction mixtures were incubated at 30°C for 30 min. […] Nonspecific binding was defined by the amount of radioactivity remaining in the presence of 10 μM non-radiolabeled GTPγS. Reactions were terminated by rapid vacuum filtration through glass fiber filters followed by four washes with ice cold 50 mM HEPES (pH 7.4) containing 0.1% bovine serum albumin. Four ml of scintiverse scintillation fluid (Fisher Scientific, Waltham, MA) was added to the filters and the amount of radioactivity was quantified 24 hr later utilizing liquid scintillation spectrophotometry.
as §3, with “All dissociation constants and measurements of potency were converted to pKi, pKB, pEC50, or pIC50 values by taking the negative log of each value so that parametric tests could be used for statistical comparisons.” left out, “To compare two groups, the non-paired Student's t-test was used.” left out

hCB1 receptors [6] = target: T1, hCB1 receptors; test: Forskolin-stimulated intracellular [3H]cAMP in intact CHO-hCB1 cells; assay type: cell-based; details: concentration-effect curves
Method: as §4, with “Reactions were terminated by adding 50 μl 2.2N HCl and [^3H]cAMP was isolated by employing alumina column chromatography.” left out
(§7) Data presented are expressed as mean ± standard error of the mean (S.E.M.) for a minimum of three experiments, each performed in triplicate. […] To compare three or more groups, statistical significance of the data was determined by a one-way ANOVA, followed by post hoc comparisons using a Tukey's or Dunnett's test. […]

[7] = chronic administration, cited from earlier work
ERs = details: ref [23], [24]; cited from earlier work
hCB2 receptors [8] = target: T2, hCB2 receptors; test: [35S]GTPγS binding (G-protein activity), CHO-hCB2 membranes; assay type: biochemical; details: 10 μM
Method: as §1
as §6, with “Reactions were terminated by rapid vacuum filtration through glass fiber filters followed by four washes with ice cold 50 mM HEPES (pH 7.4) containing 0.1% bovine serum albumin.” left out
as §7

[9] = target: T3, human mu-opioid receptors (hMOR) (Homo sapiens, UniProt P35372); test: [35S]GTPγS binding (G-protein activity), CHO-hMOR membranes; assay type: biochemical; details: 10 μM
T3 construct: expressed in transfected cells
Method: as §1, with “Membrane homogenates were divided into aliquots and stored at −80°C for future use.” left out
The GTPγS binding assay to measure G-protein activation was performed as previously described. […] Nonspecific binding was defined by the amount of radioactivity remaining in the presence of 10 μM non-radiolabeled GTPγS. […] Four ml of scintiverse scintillation fluid (Fisher Scientific, Waltham, MA) was added to the filters and the amount of radioactivity was quantified 24 hr later utilizing liquid scintillation spectrophotometry.
Data presented are expressed as mean ± standard error of the mean (S.E.M.) for a minimum of three experiments, each performed in triplicate. […]

hCB2 receptors [10] = target: T2, hCB2 receptors; test: Antagonism of CP-55,940 inhibition of AC activity in intact CHO-hCB2 cells; assay type: cell-based
Method: as §5, §3

[11] = CHO-hCB1 cells, against CP-55,940, AM-281 1 μM, Z-4OHT 10 μM, Z-End 30 μM
[12] = CHO-hCB1 cells, Z-Tam 30 μM, Z-4OHT 10 μM, Z-End 30 μM

T1 sequence (P21554 whole entry): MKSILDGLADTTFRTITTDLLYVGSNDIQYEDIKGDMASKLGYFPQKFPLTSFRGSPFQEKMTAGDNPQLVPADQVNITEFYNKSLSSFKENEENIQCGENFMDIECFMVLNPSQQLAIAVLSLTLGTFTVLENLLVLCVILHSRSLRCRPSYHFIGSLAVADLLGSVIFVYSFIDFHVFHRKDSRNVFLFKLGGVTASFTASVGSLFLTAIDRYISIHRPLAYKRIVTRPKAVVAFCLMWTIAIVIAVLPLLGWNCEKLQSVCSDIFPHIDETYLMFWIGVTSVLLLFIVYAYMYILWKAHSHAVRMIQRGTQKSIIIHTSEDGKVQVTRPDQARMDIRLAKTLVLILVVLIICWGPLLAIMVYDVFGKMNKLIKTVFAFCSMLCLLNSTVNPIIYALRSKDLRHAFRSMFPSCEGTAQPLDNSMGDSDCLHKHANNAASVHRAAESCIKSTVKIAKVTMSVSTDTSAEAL
T2 sequence (P34972 whole entry): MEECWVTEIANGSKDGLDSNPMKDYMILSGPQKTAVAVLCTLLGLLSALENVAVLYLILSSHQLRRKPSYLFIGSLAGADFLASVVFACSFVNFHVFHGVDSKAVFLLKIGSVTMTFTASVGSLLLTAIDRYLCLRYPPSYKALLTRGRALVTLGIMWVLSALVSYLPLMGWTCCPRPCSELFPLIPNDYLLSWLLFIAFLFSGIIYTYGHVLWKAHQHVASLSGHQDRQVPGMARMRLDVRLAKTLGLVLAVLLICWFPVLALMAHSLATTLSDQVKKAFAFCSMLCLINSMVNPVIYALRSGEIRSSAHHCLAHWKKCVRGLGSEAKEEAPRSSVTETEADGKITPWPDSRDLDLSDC
T3 sequence (P35372 whole entry): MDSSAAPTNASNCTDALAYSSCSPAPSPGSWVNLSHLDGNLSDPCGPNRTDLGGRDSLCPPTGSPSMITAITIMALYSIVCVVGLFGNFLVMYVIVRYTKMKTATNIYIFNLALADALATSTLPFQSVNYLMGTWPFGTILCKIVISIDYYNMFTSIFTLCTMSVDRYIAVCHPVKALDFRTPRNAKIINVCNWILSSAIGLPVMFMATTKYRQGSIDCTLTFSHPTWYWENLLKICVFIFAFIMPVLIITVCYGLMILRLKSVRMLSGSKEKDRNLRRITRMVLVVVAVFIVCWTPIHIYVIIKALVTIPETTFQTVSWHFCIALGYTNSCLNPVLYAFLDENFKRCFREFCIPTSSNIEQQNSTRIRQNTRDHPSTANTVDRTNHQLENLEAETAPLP

Row | SMILES | Ki (hCB1 receptors [1]) [nM] | Selectivity (CB1/CB2) (hCB1 receptors [1]) | Ki (hCB2 receptors [2]) [nM] | EMAX, intracellular [3H]cAMP (hCB2 receptors [3]) | EC50 (hCB2 receptors [3]) [nM] | Type of antagonism of CP-55,940 (hCB1 receptors [4]; CHO-hCB1 cells) | IMAX of CP-55,940, intracellular [3H]cAMP (hCB1 receptors [4]; [12]) | Type of antagonism of CP-55,940 (hCB2 receptors [10]) | further results
1 | CC/C(=C(/c1ccc(O)cc1)c1ccc(OCCNC)cc1)c1ccccc1 [E-End, 4-hydroxy-N-desmethyl tamoxifen] | 1390 | 0.59 | 2350 | 239 ± 22^b % | 10700 | – | – | – | –
2 | Cc1c(C(=O)NN2CCOCC2)nn(-c2ccc(Cl)cc2Cl)c1-c1ccc(I)cc1 [AM-281] | – | – | – | – | – | surmountable antagonism | 35.7 ± 0.9^a % | – | pKb (hCB1 receptors [4]; [11]): 6.81 ± 0.061; Kb (hCB1 receptors [4]; [11]): 155 nM; Shift (decrease) in potency (IC50) of CP-55,940 (hCB1 receptors [4]; CHO-hCB1 cells, AM-281 1 μM, Z-Tam 30 μM): greater than 8 fold; Effect on basal [35S]GTPγS binding (hCB1 receptors [5]; 10 μM): decreased; IMAX, inhibition of basal [35S]GTPγS binding (hCB1 receptors [5]; 10 μM): 33. ± 3.2%; Effect on basal cAMP levels (hCB1 receptors [6]): did not alter cAMP levels
3 | CC/C(=C(\c1ccc(O)cc1)c1ccc(OCCN(C)C)cc1)c1ccccc1 [4OHT, 4-hydroxytamoxifen] | – | – | – | – | – | – | – | – | Concentration reached in serum ([7]; ref [40]): high nanomolar concentrations; Levels accumulated in brain and breast tissue ([7]; ref [65], [66]): micromolar range
4 | CC/C(=C(\c1ccccc1)c1ccc(OCCN(C)C)cc1)c1ccccc1 [Z-Tam, tamoxifen] | – | – | – | 374 ± 24^a^,^b^, ^††† % | – | insurmountable | 23.0% | surmountable antagonism | IMAX of CP-55,940, intracellular [3H]cAMP (hCB1 receptors [4]; CHO-hCB1 cells, Z-Tam 30 μM, Z-4OHT 10 μM, Z-End 30 μM, listed as +Z-Tam): 23.0 ± 0.5^b %; Functional activity at ERs (ERs): ER antagonist; IMAX, decrease in basal G-protein activity ([35S]GTPγS binding) (hCB2 receptors [8]): 65.1± 3.0%; Decrease in [35S]GTPγS binding [9]: 11.3%; inhibition at 10 µM (hCB1 receptors [5]; read-out: IMAX, inhibition of basal [35S]GTPγS binding): 50.8 ± 2.7%; IMAX of CP-55,940, intracellular [3H]cAMP (hCB2 receptors [10]; CP-55,940 alone or after pre-incubation with AM-630 1 μM, Z-Tam 10 μM, Z-4OHT 10 μM, Z-End 30 μM): 32.3 ± 0.7^a %
5 | CC/C(=C(\c1ccc(O)cc1)c1ccc(OCCN(C)C)cc1)c1ccccc1 [Z-4OHT, 4-hydroxytamoxifen] | 681 | 1.38 | 495 | 323 ± 37^a^,^b % | 4900 | surmountable antagonism | – | surmountable antagonism | Kb (hCB1 receptors [4]): 4680 nM; Kb (hCB2 receptors [10]; against CP-55,940, AM-630 1 μM, Z-Tam 10 μM, Z-4OHT 10 μM, read-out: Kb (antagonist dissociation constant)): 856 nM and 851 nM
